Series [1] relates to HEP-G2 cells. As to the kind of experiment: cells. Conditions: for EC50 / Emax / EC (Emax): Homo sapiens; for EC50: HepG2, 3 h; for HEP-G2 Tox: human, 3 h. The method in brief:
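HEP-G2 cells were treated with compound for 3 h at 37 °C in MEM/0.5% BSA containing 10 μCi/ml D-(3-^3H(N))-glucose, then lysed with TCA; ^3H-water released via the respiratory chain was recovered by evaporation at 50 °C and counted. Values are corrected for non-specific and basal counts, expressed as % of maximal FCCP or DNP stimulation, and EC50 is from a variable-slope sigmoidal fit.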

For series [2], the system named is isolated mitochondria. The series can be described thus: Assay (II): effect of chemical uncouplers on mitochondrial respiration using isolated mitochondria (oxygen consumption). The format is biochemical. As to the method: Assay (II)—The Effect of Chemical Uncouplers on Mitochondrial Respiration Using Isolated Mitochondria.
This assay is used to investigate if the increase in glucose utilisation caused by the test compounds observed in the glucose utilisation assay is due to an increase in the respiration of the mitochondria. This is done by measuring oxygen consumption in isolated mitochondria.
A Clark oxygen electrode is used to determine the oxygen consumption. The isolated mitochondria are added to medium containing oxygen and nutrients (e.g. Succinate) and the rate of oxygen consumptions is measured, when stabilized a small amount of ADP is added to increase the respiration and an increase in the rate of oxygen consumption is measured. When the rate of oxygen consumption again has stabilized the test compound is added and a further increase in oxygen consumption is seen. This experiment is done with and without the addition of oligomycin which is an inhibitor of the ATP-synthase. Finally, the test compound is examined without adding ADP. If the test compound stimulates the rate of oxygen consumption in all setups, it is regarded as a chemical uncoupler.

The subject of series [3] is FSK-4 cells. The series can be described thus: Assay (IV): Glucose utilisation in FSK-4 cells. The series is classed as cell-based. Conditions: for EC50: read-out: FSK4 EC50; for Emax: read-out: FSK4 Emax (% of FCCP).
The conditions of series [4]: humans; cited from earlier work.
Where [5] appears, read: HepG2, read-out: HEP-G2 Emax (% of FCCP).
Setting [6] is: HepG2, read-out: HEP-G2 Emax (μM).
Setting [7] is: read-out: HEP-G2 EC50, HEP-G2 cells, glucose utilisation, 3 hours incubation.
[8] abbreviates: HepG2, read-out: HEP-G2 Emax (% of FCCP), HEP-G2 cells, maximal stimulation relative to FCCP.
[9] abbreviates: HepG2, read-out: HEP-G2 Emax (μM), HEP-G2 cells, concentration at which Emax is achieved (CEmax).
The mark [10] stands for this setting: FSK-4 cells, glucose utilisation, 24 hours incubation.
[11] abbreviates: FSK-4 cells, maximal efficacy relative to FCCP.

Like-named read-outs stand apart in the source and are kept apart here.

On to `CC(CCC(=O)O)(c1ccc(O)c([N+](=O)[O-])c1)c1ccc(O)c([N+](=O)[O-])c1` [Example 1, 4,4-Bis-(4-Hydroxy-3-Nitrophenyl)-Valeric Acid], for which the EC50 (as a rule, the concentration that produces a half-maximal response) in series [1] (read-out: HEP-G2 EC50) was found to be 40 µM. Also, the maximal effect (Emax) (usually the maximal effect, on the per cent scale that the assay sets) in series [1] (setting [5]) was 45%. For the same molecule, in series [1] (setting [6]), the EC (Emax) came out at 100 µM. Also, the “Mito State-4” value in series [2] was “Ok”.
On to `CC(C)(C)c1cc(C=C(C#N)C#N)cc(C(C)(C)C)c1O` [Example 25, 2,6-Di-t-Butyl-4-(2′,2′-Dicyanovinyl)Phenol, reference compound], for which the EC50 in series [1] (read-out: HEP-G2 EC50) was 0.48 µM; in series [3] (24 h) it was 0.01 µM. Also, the results for the maximal response (Emax) in series [1] (setting [5]) and in series [3] were 100% and 110%, respectively. Besides, in series [1] (setting [6]), the EC (Emax) is 10 µM. Moreover, in series [2], the “Mito State-4” value is “Ok”.
With `O=[N+]([O-])c1ccc(O)c([N+](=O)[O-])c1` [Example 26, 2,4-Dinitrophenol, reference compound], the concentration giving a half-maximal response (EC50) turned out to be 225 µM in series [1] (read-out: HEP-G2 EC50) and 90 µM in series [3] (24 h). The Emax in series [1] (setting [5]) is 100%; in series [3], 95%. The EC (Emax) in series [1] (setting [6]) stood at 500 µM. Also, in series [2], the “Mito State-4” value is reported as “Ok”. Besides, the “lowest dose which could be lethal relative to average dose giving a desired 50% increase in basal metabolic rate” value in series [4] is “twice”.
Regarding `CC(C)(C)c1cc(C(=O)Nc2ccc([N+](=O)[O-])cc2Cl)c(O)c(C(C)(C)C)c1` [Example 40, 3,5-Di-Tert-Butyl-N-(2-Chloro-4-Nitro-Phenyl)-2-Hydroxy-Benzamide], the EC50 in series [1] (setting [7]) is 0.58 µM. Further, the Emax in series [1] (setting [8]) amounted to 105%. Also, the EC (Emax) in series [1] (setting [9]) was determined as 3 µM. For the same molecule, the “Mito State-4” value in series [2] is on record as “Ok”.
`Cc1ccc(C(C)(C)C)c(O)c1C(=O)Nc1ccc([N+](=O)[O-])cc1C(F)(F)F` [Example 59, 3-Tert-Butyl-2-Hydroxy-6-Methyl-N-(4-Nitro-2-Trifluoromethyl-Phenyl)-Benzamide]: the values for the half-maximal effective concentration (EC50) in series [1] (setting [7]) and in series [3] (setting [10]) were 0.11 µM and 0.03 µM, respectively. The Emax in series [1] (setting [8]) came to 110%; in series [3] (setting [11]) it was 100%. In series [1] (setting [9]), the EC (Emax) is 10 µM.
The matching figures for `Cc1c(Br)cc(C(C)(C)C)c(O)c1C(=O)Nc1cc(C(F)(F)F)cc(C(F)(F)F)c1Br` [Example 60, 3-Bromo-N-(2-Bromo-3,5-Bis-Trifluoromethyl-Phenyl)-5-Tert-Butyl-6-Hydroxy-2-Methylbenzamide]: 0.07 µM, 0.3 µM, 90%, 105% and 0.3 µM.
As to `Cc1c(Br)cc(C(C)(C)C)c(O)c1C(=O)Nc1cc(C(F)(F)F)ccc1C(F)(F)F` [Example 61, N-(2,5-Bis-Trifluoromethyl-Phenyl)-3-Bromo-5-Tert-Butyl-6-Hydroxy-2-Methyl-Benzamide], the values for the EC50 in series [1] (setting [7]) and in series [3] (setting [10]) were 0.87 µM and 1.1 µM, respectively. In addition, the Emax in series [1] (setting [8]) and in series [3] (setting [11]) was 105% in each case. The EC (Emax) in series [1] (setting [9]) turned out to be 10 µM.
On to `Cc1c(Br)cc(C(C)(C)C)c(O)c1C(=O)Nc1c(Cl)cc(Cl)cc1C(F)(F)F` [Example 62, 3-Bromo-5-Tert-Butyl-N-(2,4-Dichloro-6-Trifluoromethyl-Phenyl)-6-Hydroxy-2-Methylbenzamide], for which the results for the EC50 in series [1] (setting [7]) and in series [3] (setting [10]) were 2.3 µM and 1.2 µM, respectively. Also, the results for the maximal effect (Emax) in series [1] (setting [8]) and in series [3] (setting [11]) were 115% and 85%, respectively. Moreover, the EC (Emax) in series [1] (setting [9]) was determined as 30 µM.
The matching figures for `Cc1c(Br)cc(C(C)(C)C)c(O)c1C(=O)Nc1ccc(C(C)C)cc1C(F)(F)F` [Example 63, 3-Bromo-5-Tert-Butyl-6-Hydroxy-N-(4-Isopropyl-2-Trifluoromethyl-Phenyl)-2-Methyl-Benzamide]: 14 µM, 19 µM, 90%, 55% and 100 µM.
Take `CCOC(=O)/C(=C/c1cc(C(C)(C)C)c(O)c(C(C)(C)C)c1)C(C)=O` [Example 69, 2-Acetyl-3-(3,5-Di-Tert-Butyl-4-Hydroxy-Phenyl)-Acrylic Acid Ethyl Ester]: the EC50 in series [1] (setting [7]) came out at 100 µM; in series [3] (setting [10]), 9 µM. The Emax was found to be 58% in series [1] (setting [8]) and 40% in series [3] (setting [11]). In addition, the EC (Emax) in series [1] (setting [9]) is 300 µM. Besides, the “HEP-G2 Tox” value in series [1] was “Tox 1 mM”.
Regarding `CC(C)(C)c1cc([N+](=O)[O-])cc(C(C)(C)C)c1O` [Example 72, 2,6-Di-Tert-Butyl-4-Nitro-Phenol], the half-maximal effective concentration (EC50) in series [1] (read-out: HEP-G2 EC50) stood at 13 µM. For the same molecule, the Emax in series [1] (setting [5]) amounted to 100%. For the same molecule, the EC (Emax) in series [1] (setting [6]) was found to be 100 µM. In addition, the “Mito State-4” value in series [2] was “Ok”.
As to `CC(C)(C)c1cc([N+](=O)[O-])cc([N+](=O)[O-])c1O` [Example 73, 2-Tert-Butyl-4,6-Dinitro-Phenol], the results for the EC50 in series [1] (read-out: HEP-G2 EC50) and in series [3] (setting [10]) were 7.3 µM and 7 µM, respectively. The results for the maximal effect (Emax) in series [1] (setting [5]) and in series [3] (setting [11]) were 70% and 100%, respectively. Moreover, the EC (Emax) in series [1] (setting [6]) came out at 300 µM.
For the molecule `CC(C)(C)c1cc(/C=C(\C#N)c2ccccn2)cc(C(C)(C)C)c1O` [Example 74, 3-(3,5-Di-Tert-Butyl-4-Hydroxy-Phenyl)-2-Pyridin-2-Yl-Acrylonitrile], the half-maximal effective concentration (EC50) turned out to be 16 µM in series [1] (setting [7]) and 15 µM in series [3] (setting [10]). The figures for the Emax in series [1] (setting [8]) and in series [3] (setting [11]) were 80% and 120%, respectively. Besides, the EC (Emax) in series [1] (setting [9]) is 100 µM.
`CCOP(=O)(OCC)/C(C#N)=C\c1cc(C(C)(C)C)c(O)c(C(C)(C)C)c1` [Example 76, 3-(3,5-Di-Tertbutyl-4-Hydroxybenzylidene)-2-(Diethylphosphonate)-Propenenitrile]: the EC50 in series [1] (read-out: HEP-G2 EC50) worked out at 11 µM; in series [3] (setting [10]), 3.2 µM. Further, the Emax is 90% in series [1] (setting [5]) and 150% in series [3] (setting [11]). In series [1] (setting [6]), the EC (Emax) is 30 µM.
`CC(C)(C)c1cc(/C=C(\C#N)c2ccc(OC(F)(F)F)cc2)cc(C(C)(C)C)c1O` [Example 80, 3-(3,5-Di-Tert-Butyl-4-Hydroxy-Phenyl)-2-(4-Trifluoromethoxy-Phenyl)-Acrylonitrile]: the EC50 was 8 µM in series [1] (setting [7]) and 18 µM in series [3] (setting [10]). Moreover, the Emax in series [1] (setting [8]) amounted to 80%; in series [3] (setting [11]), 100%. The EC (Emax) in series [1] (setting [9]) stood at 100 µM. Also, in series [1], the “HEP-G2 Tox” value was “Tox 0.3 mM”.
For the molecule `CC(C)(C)c1cc(/C=C(\C#N)c2ccc(C(F)(F)F)cc2)cc(C(C)(C)C)c1O` [Example 81, 3-(3,5-Di-Tert-Butyl-4-Hydroxy-Phenyl)-2-(4-Trifluoromethyl-Phenyl)-Acrylonitrile], the EC50 in series [1] (read-out: HEP-G2 EC50) and in series [3] (setting [10]) was 7 µM each time. For the same molecule, the Emax in series [1] (setting [5]) amounted to 130%; in series [3] (setting [11]), 140%. In addition, the EC (Emax) in series [1] (setting [6]) stood at 100 µM.
For `CCOC(=O)/C(C#N)=C(/C)c1cc(C(C)(C)C)c(O)c(C(C)(C)C)c1` [Example 82, 2-Cyano-3-(3,5-Di-Tert-Butyl-4-Hydroxy-Phenyl)-But-2-Enoic Acid Ethyl Ester], the EC50 was 10 µM in series [1] (setting [7]) and 11 µM in series [3] (setting [10]). The results for the maximal effect (Emax) in series [1] (setting [8]) and in series [3] (setting [11]) were 100% and 90%, respectively. Also, the EC (Emax) in series [1] (setting [9]) was found to be 30 µM.

The values are drawn from patent publication US20040138301A1, “Chemical uncouplers for the treatment of obesity” (priority 2002, published 2004).
